Reference: patent publication US9216999B2, “Substituted pyrrolo[2,3-h][1,6]naphthyridines and compositions thereof as JAK inhibitors” (priority 2011, dated 2015)
Like-named read-outs stand apart in the source and are kept apart here.

Legend:
Format in all cases: biochemical
[1] = target: JAK3 (Homo sapiens (Human), UniProt P52333); assay: Enzyme assay (Assay Example^a 1), JAK3
[2] = target: Tyk2 (Homo sapiens (Human), UniProt P29597); assay: Enzyme assay (Assay Example^a 1), Tyk2; settings: ATP 100 μM
[3] = target: JAK1 (Homo sapiens (Human), UniProt P23458); assay: Enzyme assay (Assay Example^a 1), JAK1; settings: ATP 100 μM
[4] = target: JAK2 (Homo sapiens (Human), UniProt O60674); assay: Enzyme assay (Assay Example^a 1), JAK2; settings: ATP 100 μM

JAK3, sequence (P52333 whole entry): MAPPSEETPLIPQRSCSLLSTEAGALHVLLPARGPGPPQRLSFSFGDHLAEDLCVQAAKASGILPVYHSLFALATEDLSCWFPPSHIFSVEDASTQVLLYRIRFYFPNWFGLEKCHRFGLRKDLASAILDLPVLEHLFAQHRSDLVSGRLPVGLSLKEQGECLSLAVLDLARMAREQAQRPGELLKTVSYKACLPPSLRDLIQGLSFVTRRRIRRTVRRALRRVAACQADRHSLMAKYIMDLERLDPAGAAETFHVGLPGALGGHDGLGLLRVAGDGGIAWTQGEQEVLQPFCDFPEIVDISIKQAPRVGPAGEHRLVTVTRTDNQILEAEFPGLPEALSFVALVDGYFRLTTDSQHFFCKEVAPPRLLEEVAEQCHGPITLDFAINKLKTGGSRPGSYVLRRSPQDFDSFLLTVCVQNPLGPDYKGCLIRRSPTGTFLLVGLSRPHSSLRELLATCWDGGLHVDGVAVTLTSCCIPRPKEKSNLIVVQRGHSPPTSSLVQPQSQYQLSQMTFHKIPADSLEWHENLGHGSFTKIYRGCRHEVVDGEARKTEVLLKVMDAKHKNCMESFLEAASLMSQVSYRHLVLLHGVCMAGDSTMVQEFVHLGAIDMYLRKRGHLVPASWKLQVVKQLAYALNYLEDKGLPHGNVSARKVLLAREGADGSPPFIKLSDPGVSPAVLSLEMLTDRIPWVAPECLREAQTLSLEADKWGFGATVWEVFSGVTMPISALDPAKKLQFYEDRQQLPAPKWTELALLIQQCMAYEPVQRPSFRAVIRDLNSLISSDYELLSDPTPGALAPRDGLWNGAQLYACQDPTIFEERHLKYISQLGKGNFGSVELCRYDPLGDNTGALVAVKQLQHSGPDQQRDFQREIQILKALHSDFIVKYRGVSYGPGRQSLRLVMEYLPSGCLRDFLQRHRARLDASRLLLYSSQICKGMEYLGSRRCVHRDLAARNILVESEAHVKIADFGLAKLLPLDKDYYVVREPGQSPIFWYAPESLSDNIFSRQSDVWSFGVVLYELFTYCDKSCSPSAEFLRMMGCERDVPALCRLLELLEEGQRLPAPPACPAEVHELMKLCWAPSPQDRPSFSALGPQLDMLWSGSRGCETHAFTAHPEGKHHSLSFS
Tyk2, sequence (P29597 whole entry): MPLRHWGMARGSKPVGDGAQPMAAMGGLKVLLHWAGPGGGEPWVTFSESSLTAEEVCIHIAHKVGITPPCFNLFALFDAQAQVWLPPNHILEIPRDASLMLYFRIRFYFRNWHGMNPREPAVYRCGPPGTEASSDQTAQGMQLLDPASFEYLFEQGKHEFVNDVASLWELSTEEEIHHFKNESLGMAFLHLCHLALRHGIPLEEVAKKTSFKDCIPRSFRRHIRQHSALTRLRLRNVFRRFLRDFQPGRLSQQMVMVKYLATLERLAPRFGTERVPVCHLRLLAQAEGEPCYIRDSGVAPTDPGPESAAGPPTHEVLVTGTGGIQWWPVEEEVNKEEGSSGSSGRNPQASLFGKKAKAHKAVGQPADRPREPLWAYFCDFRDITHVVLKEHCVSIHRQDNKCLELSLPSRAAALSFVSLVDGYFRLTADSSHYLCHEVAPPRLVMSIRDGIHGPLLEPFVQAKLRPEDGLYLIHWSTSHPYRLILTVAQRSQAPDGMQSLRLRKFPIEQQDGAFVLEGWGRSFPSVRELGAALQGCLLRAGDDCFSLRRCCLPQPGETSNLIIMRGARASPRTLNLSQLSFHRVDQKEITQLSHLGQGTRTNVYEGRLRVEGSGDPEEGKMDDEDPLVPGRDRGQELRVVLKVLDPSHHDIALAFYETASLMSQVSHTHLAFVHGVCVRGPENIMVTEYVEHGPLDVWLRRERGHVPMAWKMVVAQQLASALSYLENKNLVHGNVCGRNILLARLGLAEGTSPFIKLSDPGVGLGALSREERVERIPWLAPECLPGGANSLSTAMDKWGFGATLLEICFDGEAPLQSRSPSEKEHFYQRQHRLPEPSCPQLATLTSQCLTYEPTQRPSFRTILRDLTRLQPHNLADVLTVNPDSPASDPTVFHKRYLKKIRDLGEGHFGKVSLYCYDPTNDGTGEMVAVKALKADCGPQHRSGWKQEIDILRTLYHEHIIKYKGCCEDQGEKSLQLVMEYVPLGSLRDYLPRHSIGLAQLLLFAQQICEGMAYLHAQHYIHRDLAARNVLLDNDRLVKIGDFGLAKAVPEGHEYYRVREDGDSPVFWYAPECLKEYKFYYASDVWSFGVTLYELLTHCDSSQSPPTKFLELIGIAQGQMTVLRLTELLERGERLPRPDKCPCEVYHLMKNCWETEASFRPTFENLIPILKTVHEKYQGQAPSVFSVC

SMILES: FC(F)(F)CCNC[C@H]1CC[C@H](c2nnn3cnc4[nH]ccc4c23)CC1 [compound 256, N-{[trans-4-(7H-pyrrolo[3,2-e][1,2,3]triazolo[1,5-c]pyrimidin-1-yl)cyclohexyl]methyl}-3,3,3-trifluoropropan-1-amine]
- IC50 ([1]; ATP 100 μM): 0.99 µM
- IC50 [2]: 0.27 µM
- IC50 [3]: 0.015 µM
- IC50 [4]: 0.062 µM

SMILES: OC1CN(C[C@H]2CC[C@H](c3nnn4cnc5[nH]ccc5c34)CC2)C1 [compound 257, 1-{[trans-4-(7H-pyrrolo[3,2-e][1,2,3]triazolo[1,5-c]pyrimidin-1-yl)cyclohexyl]methyl}azetidin-3-ol]
- IC50 ([1]; ATP 100 μM): 0.49 µM
- IC50 [2]: 0.049 µM
- IC50 [3]: 0.0017 µM
- IC50 [4]: 0.016 µM

SMILES: FC(F)(F)C1CCN(C[C@H]2CC[C@H](c3nnn4cnc5[nH]ccc5c34)CC2)CC1 [compound 258, 1-(trans-4-{[4-(trifluoromethyl)piperidin-1-yl]methyl}cyclohexyl)-7H-pyrrolo[3,2-e][1,2,3]triazolo[1,5-c]pyrimidine]
- IC50 ([1]; ATP 100 μM): > 1 µM
- IC50 [2]: 0.74 µM
- IC50 [3]: 0.012 µM
- IC50 [4]: 0.081 µM

SMILES: N#CCNC[C@H]1CC[C@H](c2nnn3cnc4[nH]ccc4c23)CC1 [compound 259, 2-({[trans-4-(7H-pyrrolo[3,2-e][1,2,3]triazolo[1,5-c]pyrimidin-1-yl)cyclohexyl]methyl}amino)acetonitrile]
- IC50 ([1]; ATP 100 μM): 0.27 µM
- IC50 [2]: 0.037 µM
- IC50 [3]: 0.0021 µM
- IC50 [4]: 0.0081 µM

SMILES: O=C1CN(C[C@H]2CC[C@H](c3nnn4cnc5[nH]ccc5c34)CC2)CCN1 [compound 260, 4-{[trans-4-(7H-pyrrolo[3,2-e][1,2,3]triazolo[1,5-c]pyrimidin-1-yl)cyclohexyl]methyl}piperazin-2-one]
- IC50 ([1]; ATP 100 μM): > 1 µM
- IC50 [2]: 0.97 µM
- IC50 [3]: 0.024 µM
- IC50 [4]: 0.048 µM

SMILES: NC(=O)C1CCN(C[C@H]2CC[C@H](c3nnn4cnc5[nH]ccc5c34)CC2)CC1 [compound 261, 1-{[trans-4-(7H-pyrrolo[3,2-e][1,2,3]triazolo[1,5-c]pyrimidin-1-yl)cyclohexyl]methyl}piperidine-4-carboxamide]
- IC50 ([1]; ATP 100 μM): > 1 µM
- IC50 [2]: 0.64 µM
- IC50 [3]: 0.023 µM
- IC50 [4]: 0.091 µM

SMILES: N#Cc1ccc(NC[C@H]2CC[C@H](c3nnn4cnc5[nH]ccc5c34)CC2)cc1C#N [compound 262, 4-({[trans-4-(7H-pyrrolo[3,2-e][1,2,3]triazolo[1,5-c]pyrimidin-1-yl)cyclohexyl]methyl}amino)phthalonitrile]
- IC50 ([1]; ATP 100 μM): 0.59 µM
- IC50 [2]: 0.91 µM
- IC50 [3]: 0.0047 µM
- IC50 [4]: 0.045 µM

SMILES: N#Cc1cc(NC[C@H]2CC[C@H](c3nnn4cnc5[nH]ccc5c34)CC2)ccc1Cl [compound 263, 5-({[trans-4-(7H-pyrrolo[3,2-e][1,2,3]triazolo[1,5-c]pyrimidin-1-yl)cyclohexyl]methyl}amino)-2-chlorobenzonitrile]
- IC50 ([1]; ATP 100 μM): > 1 µM
- IC50 [2]: > 1 µM
- IC50 [3]: 0.027 µM
- IC50 [4]: 0.22 µM

SMILES: N#CCc1ccc(NC[C@H]2CC[C@H](c3nnn4cnc5[nH]ccc5c34)CC2)cc1 [compound 264, 2-[4-({[trans-4-(7H-pyrrolo[3,2-e][1,2,3]triazolo[1,5-c]pyrimidin-1-yl)cyclohexyl]methyl}amino)phenyl]acetonitrile]
- IC50 ([1]; ATP 100 μM): > 1 µM
- IC50 [2]: > 1 µM
- IC50 [3]: 0.011 µM
- IC50 [4]: 0.032 µM

SMILES: OC[C@H]1CCCN1C[C@H]1CC[C@H](c2nnn3cnc4[nH]ccc4c23)CC1 [compound 265, ((R)-1-{[trans-4-(7H-pyrrolo[3,2-e][1,2,3]triazolo[1,5-c]pyrimidin-1-yl)cyclohexyl]methyl}pyrrolidin-2-yl)methanol]
- IC50 ([1]; ATP 100 μM): > 1 µM
- IC50 [2]: > 1 µM
- IC50 [3]: 0.046 µM
- IC50 [4]: 0.18 µM

SMILES: OC[C@@H]1CCCN1C[C@H]1CC[C@H](c2nnn3cnc4[nH]ccc4c23)CC1 [compound 266, ((S)-1-{[trans-4-(7H-pyrrolo[3,2-e][1,2,3]triazolo[1,5-c]pyrimidin-1-yl)cyclohexyl]methyl}pyrrolidin-2-yl)methanol]
- IC50 ([1]; ATP 100 μM): > 1 µM
- IC50 [2]: 0.35 µM
- IC50 [3]: 0.025 µM
- IC50 [4]: 0.11 µM

SMILES: FC(F)(Br)CNC[C@H]1CC[C@H](c2nnn3cnc4[nH]ccc4c23)CC1 [compound 269, N-{[trans-4-(7H-pyrrolo[3,2-e][1,2,3]triazolo[1,5-c]pyrimidin-1-yl)cyclohexyl]methyl}-2-bromo-2,2-difluoroethanamine]
- IC50 [1]: 0.057 µM
- IC50 [2]: 0.1 µM
- IC50 [3]: 0.0013 µM
- IC50 [4]: 0.012 µM

SMILES: COc1ccc(CNC[C@H]2CC[C@H](c3nnn4cnc5[nH]ccc5c34)CC2)cc1 [compound 270, 1-[trans-4-(7H-pyrrolo[3,2-e][1,2,3]triazolo[1,5-c]pyrimidin-1-yl)cyclohexyl]-N-(4-methoxybenzyl)methanamine]
- IC50 ([1]; ATP 100 μM): 0.75 µM
- IC50 [2]: 0.0048 µM
- IC50 [3]: 0.012 µM
- IC50 [4]: 0.1 µM

SMILES: OC1CCN(C[C@H]2CC[C@H](c3nnn4cnc5[nH]ccc5c34)CC2)CC1 [compound 271, 1-{[trans-4-(7H-pyrrolo[3,2-e][1,2,3]triazolo[1,5-c]pyrimidin-1-yl)cyclohexyl]methyl}piperidin-4-ol]
- IC50 ([1]; ATP 100 μM): > 1 µM
- IC50 [2]: 0.43 µM
- IC50 [3]: 0.02 µM
- IC50 [4]: 0.063 µM

SMILES: OCCNC[C@H]1CC[C@H](c2nnn3cnc4[nH]ccc4c23)CC1 [compound 272, 2-({[trans-4-(7H-pyrrolo[3,2-e][1,2,3]triazolo[1,5-c]pyrimidin-1-yl)cyclohexyl]methyl}amino)ethanol]
- IC50 ([1]; ATP 100 μM): 0.43 µM
- IC50 [2]: 0.094 µM
- IC50 [3]: 0.0035 µM
- IC50 [4]: 0.053 µM

SMILES: O=C1COc2cc(NC[C@H]3CC[C@H](c4nnn5cnc6[nH]ccc6c45)CC3)ccc2N1 [compound 273, 7-({[trans-4-(7H-pyrrolo[3,2-e][1,2,3]triazolo[1,5-c]pyrimidin-1-yl)cyclohexyl]methyl}amino)-2H-benzo[b][1,4]oxazin-3(4H)-one]
- IC50 ([1]; ATP 100 μM): 0.57 µM
- IC50 [2]: 0.24 µM
- IC50 [3]: 0.0046 µM
- IC50 [4]: 0.021 µM

SMILES: O=C1COc2ccc(NC[C@H]3CC[C@H](c4nnn5cnc6[nH]ccc6c45)CC3)cc2N1 [compound 274, 6-({[trans-4-(7H-pyrrolo[3,2-e][1,2,3]triazolo[1,5-c]pyrimidin-1-yl)cyclohexyl]methyl}amino)-2H-benzo[b][1,4]oxazin-3(4H)-one]
- IC50 ([1]; ATP 100 μM): > 1 µM
- IC50 [2]: 0.2 µM
- IC50 [3]: 0.0035 µM
- IC50 [4]: 0.029 µM

SMILES: FC1(F)Oc2ccc(NC[C@H]3CC[C@H](c4nnn5cnc6[nH]ccc6c45)CC3)cc2O1 [compound 275, N-{[trans-4-(7H-pyrrolo[3,2-e][1,2,3]triazolo[1,5-c]pyrimidin-1-yl)cyclohexyl]methyl}-2,2-difluorobenzo[d][1,3]dioxol-5-amine]
- IC50 ([1]; ATP 100 μM): 0.85 µM
- IC50 [2]: 0.52 µM
- IC50 [3]: 0.0067 µM
- IC50 [4]: 0.065 µM

SMILES: O=C(O)C1CN(C[C@H]2CC[C@H](c3nnn4cnc5[nH]ccc5c34)CC2)C1 [compound 278, 1-{[trans-4-(7H-pyrrolo[3,2-e][1,2,3]triazolo[1,5-c]pyrimidin-1-yl)cyclohexyl]methyl}azetidine-3-carboxylic acid]
- IC50 ([1]; ATP 100 μM): 0.45 µM
- IC50 [2]: 0.4 µM
- IC50 [3]: 0.0043 µM
- IC50 [4]: 0.034 µM

SMILES: O=C1OCCC1NC[C@H]1CC[C@H](c2nnn3cnc4[nH]ccc4c23)CC1 (stereo partly drawn) [compound 279, 3-({[trans-4-(7H-pyrrolo[3,2-e][1,2,3]triazolo[1,5-c]pyrimidin-1-yl)cyclohexyl]methyl}amino)dihydrofuran-2(3H)-one]
- IC50 ([1]; ATP 100 μM): 0.53 µM
- IC50 [2]: 0.2 µM
- IC50 [3]: 0.0074 µM
- IC50 [4]: 0.044 µM

SMILES: c1cc2c(ncn3nnc([C@H]4CC[C@H](CNC5CC5)CC4)c23)[nH]1 [compound 280, N-{[trans-4-(7H-pyrrolo[3,2-e][1,2,3]triazolo[1,5-c]pyrimidin-1-yl)cyclohexyl]methyl}cyclopropanamine]
- IC50 ([1]; ATP 100 μM): 0.68 µM
- IC50 [2]: 0.1 µM
- IC50 [3]: 0.0019 µM
- IC50 [4]: 0.062 µM

SMILES: N#CC1CN(C[C@H]2CC[C@H](c3nnn4cnc5[nH]ccc5c34)CC2)C1 [compound 281, 1-{[trans-4-(7H-pyrrolo[3,2-e][1,2,3]triazolo[1,5-c]pyrimidin-1-yl)cyclohexyl]methyl}azetidine-3-carbonitrile]
- IC50 ([1]; ATP 100 μM): 0.15 µM
- IC50 [2]: 0.48 µM
- IC50 [3]: 0.0077 µM
- IC50 [4]: 0.05 µM

SMILES: N#Cc1ccc(CCNC[C@H]2CC[C@H](c3nnn4cnc5[nH]ccc5c34)CC2)cc1 [compound 282, 4-[2-({[trans-4-(7H-pyrrolo[3,2-e][1,2,3]triazolo[1,5-c]pyrimidin-1-yl)cyclohexyl]methyl}amino)ethyl]benzonitrile]
- IC50 ([1]; ATP 100 μM): 0.39 µM
- IC50 [2]: 0.08 µM
- IC50 [3]: 0.0052 µM
- IC50 [4]: 0.07 µM

SMILES: c1cc2c(ncn3nnc([C@H]4CC[C@H](CNC5CCC5)CC4)c23)[nH]1 [compound 283, N-{[trans-4-(7H-pyrrolo[3,2-e][1,2,3]triazolo[1,5-c]pyrimidin-1-yl)cyclohexyl]methyl}cyclobutanamine]
- IC50 ([1]; ATP 100 μM): 0.9 µM
- IC50 [2]: 0.23 µM
- IC50 [3]: 0.014 µM
- IC50 [4]: 0.11 µM

SMILES: c1cc2c(ncn3nnc([C@H]4CC[C@H](CNC5CCCC5)CC4)c23)[nH]1 [compound 284, N-{[trans-4-(7H-pyrrolo[3,2-e][1,2,3]triazolo[1,5-c]pyrimidin-1-yl)cyclohexyl]methyl}cyclopentanamine]
- IC50 ([1]; ATP 100 μM): > 1 µM
- IC50 [2]: 0.32 µM
- IC50 [3]: 0.017 µM
- IC50 [4]: 0.15 µM

SMILES: c1cc2c(ncn3nnc([C@H]4CC[C@H](CNCC5CC5)CC4)c23)[nH]1 [compound 285, 1-[trans-4-(7H-pyrrolo[3,2-e][1,2,3]triazolo[1,5-c]pyrimidin-1-yl)cyclohexyl]-N-(cyclopropylmethyl)methanamine]
- IC50 ([1]; ATP 100 μM): 0.61 µM
- IC50 [2]: 0.068 µM
- IC50 [3]: 0.0091 µM
- IC50 [4]: 0.12 µM

SMILES: c1cc2c(ncn3nnc([C@H]4CC[C@H](CN5CCC5)CC4)c23)[nH]1 [compound 286, 1-[trans-4-(azetidin-1-ylmethyl)cyclohexyl]-7H-pyrrolo[3,2-e][1,2,3]triazolo[1,5-c]pyrimidine]
- IC50 ([1]; ATP 100 μM): 0.57 µM
- IC50 [2]: 0.23 µM
- IC50 [3]: 0.0059 µM
- IC50 [4]: 0.035 µM
